Patent publication US9556242B2, “Method for regulating circadian rhythms” (ANYGEN CO., LTD., priority 2011, dated 2017)
Entries after “also recorded” stand apart in the source; their conditions may differ.

System: per2 promoter
Test: Per2-luciferase activity in cultured mouse brain sections including SCN after NQ peptide treatment
Assay type: cell-based
Conditions: for phase-advance effect on Per2 circadian activity: NQ peptide forms and mutants treated to incubated brain section including SCN (FIG. 15); for effects in the Per2 phase advance or delay: 100 nM for 4 hours; for phase changes / activity period of per2 promoter: treated at the highest point of per2 activity; for phase changes / activity period of per2 promoter / free-running period after treatment: 5 μM (FIG. 12); for free-running period after treatment: treated at the lowest point of per2 activity
Description: Animals used in this experiment were transgenic mice in which the construct inserted Luciferase gene behind per2 promoter was knocked-in. The mice were sacrificed. The brain was speedily isolated and sectioned in a thickness of 400 μm including SCN. The mouse brain tissue sections were incubated in media containing 1% penicillin/streptomycin antibiotics, 25% Horse Serum, 25% Hank's Buffered Salt Solution (HBSS), 50% Minimum Essential Medium (MEM) and 0.3 mM luciferin. At 5 days after the incubation, the synthetic NQ peptides were treated with 5 μM of final concentration. Then, luciferase activity derived from changes of per2 promoter activities was observed.
The NQ peptides were treated with 100 nM of the concentration at 2, 6, 10, 14, 20 and 22 hours after the peak in Per2 activity with the 24-hour intervals wave. The treatment was maintained 4 hours. Then, the media were changed.
The NQ peptides were treated with 2 nM, 20 nM, 200 nM and 2000 nM of the concentrations for 4 hours to the sections at 10 hours after the peak in Per2 activity. Then, the media were changed to the original media (50% minimum essential medium, 25% gey's balanced salt solution, 25% horse serum, 36 mM glucose, and 100 units/ml aerosolized antibiotics) containing 0.3 mM luciferin to limit drug duration of the NQ peptide.
To achieve this, the present inventors have synthesized mutants: deletion mutant sequencing from first Asn to tenth Leu among the amino acid sequences as set forth in SEQ ID NO:2; optical isomer mutant 1 in which the second Trp residue is modified to D-form Trp; and optical isomer mutant 2 in which the eleventh Lys residue is modified to D-form Lys.
The NQ peptide as set forth in SEQ ID NO:2 or 3, or the NQ peptide mutants were respectively treated to the incubated brain section including SCN. Particularly, the NQ peptide as set forth in SEQ ID NO:2 found in humans and mouse was simultaneously treated with the a-NQ-S antibody as neutralization substance to elucidate those specific effects with more accuracy. […] Therefore, it could be understood that the carboxyl-terminus sequencing from the eleventh Lys residue to Gln as well as the second Trp residue and the eleventh Lys residue in the amino acid sequence of NQ peptide as set forth in SEQ ID NO:2 are very important in physiological activity.

For “NQ peptide as set forth in SEQ ID NO:3: form of the NQ peptide found in rat; His residue at the carboxyl-terminus instead of the amide group (NWTPQAMLYLKGAQGH; NQ Peptide 3)”, the “phase-advance effect on Per2 circadian activity” value was “caused the advance effects in circadian activity; also recorded: changed the Per2 phase; also recorded: showed phase-advance effects of Per2”.

With NWTPQAMLYLKGAQ-NH2 [NQ peptide] the “effects in the Per2 phase advance or delay” value (shortened to “effects”) (treated at 2 hours after the peak in Per2 activity (FIG. 13)) was “negligible or barely shown”, the “effects” value (treated at 6 hours after the peak in Per2 activity (FIG. 13)) was “negligible or barely shown” and the “effects” value (treated at 10 hours after the peak in Per2 activity (FIG. 13)) was “significantly advanced”. The “effects” value (treated at 14 hours after the peak in Per2 activity (FIG. 13)) was “significantly advanced”, the “effects” value (treated at 20 hours after the peak in Per2 activity (FIG. 13)) was “significantly advanced” and the “effects” value (treated at 22 hours after the peak in Per2 activity (FIG. 13)) was “negligible or barely shown; also recorded: negligible”. For the same substance, the “highest effect time (after peak in Per2 activity)” value (100 nM, phase-dependent treatment (FIG. 13)) was 10 h, the “dose dependence of Per2 phase-advance effect” value (2, 20, 200, 2000 nM for 4 hours at 10 hours after the peak (lowest point) in Per2 activity (FIG. 14)) was “advanced proportionally to the concentration; also recorded: dose-dependent manner” and the “concentration range in which Per2 expression period was advanced proportionally” value (4 hours treatment at 10 hours after the peak in Per2 activity (FIG. 14)) was 20 to 200 nM. For the same substance, the “phase-advance effect on Per2 circadian activity” value (listed as NQ peptide as set forth in SEQ ID NO:2) was “caused the advance effects in circadian activity; also recorded: changed the Per2 phase; also recorded: showed phase-advance effects of Per2”, the “free-running period advanced by” value (synthetic NQ peptide treated at the lowest point in Per2 phase, mouse brain section (FIG. 12)) was “approximately 2.80 hours” and the “phase changes / activity period of per2 promoter” value was “not changed”. For the same substance, the “phase changes / activity period of per2 promoter” value (listed as synthetic NQ peptide) was “negligible or barely shown”, the “highest concentration of the NQ peptide (phase-advance effect)” value (treated at the lowest point in Per2 phase (FIG. 14)) was 200 nM and the “free-running period after treatment” value was “approximately 22.3 hours”. The “free-running period after treatment” value (listed as synthetic NQ peptide) was “approximately 22.87 hours” and the “activity period of per2 promoter” value (treated at the point in which per2 shows the highest activity, 5 μM) was “approximately 24 hours”.
